Measured values taken from patent US6642217B2, “Triterpenes having human antifungal and antiyeast activity” (Naturtek, LLC, priority 2000, dated 2003).

What was measured:
[1] = system: Trichophyton mentagrophytes; assay: Direct addition to liquid culture method, optical density at 600 nm; assay type: cell-based; details: 25, 50 and 100 μg/ml; 12 days
Procedure: Direct addition to liquid culture method. Sabouraud dextrose broth was prepared according to the manufacturer's instructions, and 7.0 ml was dispensed into 100×25 mm tubes and autoclaved. To each tube containing 7.0 ml of liquid broth, the test compounds dissolved in DMSO were added to final concentrations of 25, 50, and 100 μg/ml. The tubes were then inoculated with 150 μl of a fungus suspension and incubated at 25-28° C. for 10-12 days. Growth was measured every second day by measuring optical density at 600 nm against a blank containing sterile broth.

Microsporum canis [2] = assay: Direct addition method, solid compound in Sabouraud dextrose agar; assay type: cell-based; parameters: key: +++: Maximum Fungal Growth; ++: Moderate Fungal Growth; +: Minimum Fungal Growth; +/−: Very little Fungal Growth; −: No Fungal Growth; details: 4 mg/mL of agar; 12th day after inoculation
How it was run: (§1)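 Solid compound added to molten Sabouraud dextrose agar at 45 °C to a final 4 mg/ml, then set as slants and inoculated with fungus. Incubated at 25-28 °C for 10-12 days, with growth recorded every second day and read on day 12.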

Trichophyton rubrum [3] = assay: as above; assay type: cell-based; parameters: key: +++: Maximum Fungal Growth; ++: Moderate Fungal Growth; +: Minimum Fungal Growth; +/−: Very little Fungal Growth; −: No Fungal Growth; details: 4 mg/mL of agar; 12th day after inoculation
How it was run: as §1

Pityrosporum ovale [4] = assay: as above; assay type: cell-based; parameters: key: +++: Maximum Fungal Growth; ++: Moderate Fungal Growth; +: Minimum Fungal Growth; +/−: Very little Fungal Growth; −: No Fungal Growth; details: 4 mg/mL of agar; 12th day after inoculation
How it was run: as §1

Epidermophyton floccosum [5] = assay: as above; assay type: cell-based; parameters: key: +++: Maximum Fungal Growth; ++: Moderate Fungal Growth; +: Minimum Fungal Growth; +/−: Very little Fungal Growth; −: No Fungal Growth; details: 4 mg/mL of agar; 12th day after inoculation
How it was run: as §1

Pityrosporum ovale [6] = assay: Direct addition into the Pityrosporum agar; assay type: cell-based; parameters: key to Pityrosporum ovale growth: +++: Maximum Growth; ++: Moderate Growth; +: Minimum Growth; +/−: Very Little Growth; −: No Growth; details: 4 mg/ml in the agar; 18 hours after inoculation
Procedure: Direct addition method. Sabouraud dextrose agar was prepared according to the manufacturer's instructions and 5.0 ml was dispensed in each 100×25 mm tube. The tubes were autoclaved. To each tube containing 5.0 ml of liquid agar at 45° C., 20 mg of solid test compound was added, to give a final concentration of 4 mg/ml. The agar was solidified in slants. The fungal cultures were then innoculated. […]

Microsporum audouinni [7] = assay: Direct addition method, solid compound in Sabouraud dextrose agar; assay type: cell-based, Microsporum audouinii; parameters: key to Fungal growth: +++: Maximum Fungal Growth; ++: Moderate Fungal Growth; +: Minimum Fungal Growth; +/−: Very little Fungal Growth; −: No Fungal Growth; details: for Fungal growth: 4 mg/mL of agar, 12th day after inoculation
How it was run: as §1

Microsporum gypseum [8] = assay: Summary of anti-fungal assays (direct addition, agar dilution, liquid culture); assay type: cell-based; details: stated in words (Tables 1a/1b, text to Table 5)
Procedure: (§2) This example summarizes the results of various other assays of the anti-fungal activity of betulin derivatives. Table 5 summarizes results using different assay methods—direct addition, agar dilution, and direct addition to liquid culture, as disclosed in the previous three Examples. In some cases, only one type of assay was done with a compound. In other cases, the compound was tested by multiple assays.

Trichophyton tonsurans = assay: as above; assay type: cell-based; details: stated in words (Tables 1a/1b, text to Table 5)
Procedure: as §2

Blastomyces dermatidis = assay: as above; assay type: cell-based; details: stated in words (Tables 1a/1b, text to Table 5)
Procedure: as §2

Microsporum audouinii = assay: as above; assay type: cell-based; details: stated in words (Tables 1a/1b, text to Table 5)
Procedure: as §2

[9] = system: Trichophyton mentagrophytes; assay: as above; assay type: cell-based; details: stated in words (Tables 1a/1b, text to Table 5)
Procedure: as §2

Epidermophyton floccosum [10] = assay: as above; assay type: cell-based; details: stated in words (Tables 1a/1b, text to Table 5); listed as betulin-3,28-dioxalate-3,28-polyethyleneimine
Procedure: as §2

Candida albicans = assay: as above; assay type: cell-based; details: stated in words (Tables 1a/1b, text to Table 5)
Procedure: as §2

Crytococcus neoformans = assay: as above; assay type: cell-based, Cryptococcus neoformans; details: stated in words (Tables 1a/1b, text to Table 5)
Procedure: as §2

Microsporum gypseum [11] = assay: Direct addition method, solid compound in Sabouraud dextrose agar; assay type: cell-based; parameters: key: +++: Maximum Fungal Growth; ++: Moderate Fungal Growth; +: Minimum Fungal Growth; +/−: Very little Fungal Growth; −: No Fungal Growth; details: 4 mg/mL of agar; 12th day after inoculation
How it was run: as §1

[12] = system: Trichophyton mentagrophytes; assay: as above; assay type: cell-based; parameters: key: +++: Maximum Fungal Growth; ++: Moderate Fungal Growth; +: Minimum Fungal Growth; +/−: Very little Fungal Growth; −: No Fungal Growth; details: 4 mg/mL of agar; 12th day after inoculation
How it was run: as §1

Microsporum audouinni [13] = assay: Agar dilution method, growth on Sabouraud dextrose agar slants; assay type: cell-based, Microsporum audouinii; parameters: key: +++: Maximum Fungal Growth; ++: Moderate Fungal Growth; +: Minimum Fungal Growth; +/−: Very little Fungal Growth; −: No Fungal Growth; details: 12th day after inoculation
How it was run: (§3)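 Readout: fungal growth, noted on alternate days across a 10-12 day incubation at 25-28 °C. Test slants were Sabouraud dextrose agar with compound incorporated from DMSO before solidification.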

herpes simplex virus = details: cited from earlier work
Microsporum canis [14] = assay: Agar dilution method, growth on Sabouraud dextrose agar slants; assay type: cell-based; parameters: key: +++: Maximum Fungal Growth; ++: Moderate Fungal Growth; +: Minimum Fungal Growth; +/−: Very little Fungal Growth; −: No Fungal Growth; details: 12th day after inoculation
How it was run: as §3

Microsporum gypseum [15] = assay: as above; assay type: cell-based; parameters: key: +++: Maximum Fungal Growth; ++: Moderate Fungal Growth; +: Minimum Fungal Growth; +/−: Very little Fungal Growth; −: No Fungal Growth; details: 12th day after inoculation
How it was run: as §3

Trichophyton rubrum [16] = assay: as above; assay type: cell-based; parameters: key: +++: Maximum Fungal Growth; ++: Moderate Fungal Growth; +: Minimum Fungal Growth; +/−: Very little Fungal Growth; −: No Fungal Growth; details: 12th day after inoculation
How it was run: as §3

Pityrosporum ovale [17] = assay: as above; assay type: cell-based; parameters: key: +++: Maximum Fungal Growth; ++: Moderate Fungal Growth; +: Minimum Fungal Growth; +/−: Very little Fungal Growth; −: No Fungal Growth; details: 12th day after inoculation
How it was run: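 Compound in DMSO was mixed into molten Sabouraud dextrose agar at 45 °C to the final test concentrations, then set as slants and inoculated with the fungal culture. Slants were incubated 10–12 days at 25–28 °C, with growth scored every second day.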

Epidermophyton floccosum [18] = assay: as above; assay type: cell-based; parameters: key to Fungal growth: +++: Maximum Fungal Growth; ++: Moderate Fungal Growth; +: Minimum Fungal Growth; +/−: Very little Fungal Growth; −: No Fungal Growth; details: 12th day after inoculation
How it was run: as §3

Trichophyton rubrum [19] = assay: Direct addition method, solid compound in Sabouraud dextrose agar; assay type: cell-based; details: against Trichophyton rubrum
Procedure: (§4) Direct addition method. Sabouraud dextrose agar was prepared according to the manufacturer's instructions and 5.0 ml was dispensed in each 100×25 mm tube. The tubes were autoclaved. To each tube containing 5.0 ml of liquid agar at 45° C., 20 mg of solid test compound was added, to give a final concentration of 4 mg/ml. The agar was solidified in slants. The fungal cultures were then innoculated. The slants were incubated at 25-28 ° C. for 10-12 days, and the growth of the fungus was recorded every second day. The results in Table 2 indicate growth at the 12th day of inoculation.

Trichophyton tonsuran [20] = assay: Agar dilution method, growth on Sabouraud dextrose agar slants; assay type: cell-based, Trichophyton tonsurans; parameters: key: +++: Maximum Fungal Growth; ++: Moderate Fungal Growth; +: Minimum Fungal Growth; +/−: Very little Fungal Growth; −: No Fungal Growth; details: 12th day after inoculation
How it was run: as §3

Trichophyton tonsuran [21] = assay: Direct addition method, solid compound in Sabouraud dextrose agar; assay type: cell-based, Trichophyton tonsurans; parameters: key: +++: Maximum Fungal Growth; ++: Moderate Fungal Growth; +: Minimum Fungal Growth; +/−: Very little Fungal Growth; −: No Fungal Growth; details: 4 mg/mL of agar; 12th day after inoculation
Procedure: as §4

[22] = system: Trichophyton mentagrophyte; assay: Agar dilution method, growth on Sabouraud dextrose agar slants; assay type: cell-based, Trichophyton mentagrophytes; parameters: key to Fungal growth: +++: Maximum Fungal Growth; ++: Moderate Fungal Growth; +: Minimum Fungal Growth; +/−: Very little Fungal Growth; −: No Fungal Growth; details: 12th day after inoculation
How it was run: as §3

Microsporum canis [23] = assay: Direct addition method, solid compound in Sabouraud dextrose agar; assay type: cell-based; details: against Microsporum canis
Procedure: as §4

Compound: C=C(C)[C@@H]1CC[C@]2(C)CC[C@@]3(C)C(CCC4[C@@]5(C)CC[C@H](O)C(C)(C)C5CC[C@]43C)C12 (stereo partly drawn) [Lupeol, lup-20(29)-ene-3β-ol]
- Growth inhibition in liquid culture (optical density, FIG. 1) [1]: inhibited the growth
- Fungal growth (Microsporum canis [2]): +
- Fungal growth (Trichophyton rubrum [3]): +
- Fungal growth (Pityrosporum ovale [4]): −
- Fungal growth (Epidermophyton floccosum [5]): −
- Pityrosporum ovale growth (Pityrosporum ovale [6]): +
- Fungal growth (Microsporum audouinni [7]): +

Compound: Betulin-3,28-dioxalate-3,28-polyethyleneimine
- Active against Microsporum gypseum (Microsporum gypseum [8]): Microsporum gypseum,
- Active against Trichophyton tonsurans (Trichophyton tonsurans): Trichophyton tonsurans,
- Active against Blastomyces dermatidis (Blastomyces dermatidis): against Blastomyces dermaidis
- Active against Microsporum audouinii (Microsporum audouinii): Microsporum audouinii,
- Active against Trichophyton mentagrophytes [9]: Trichophyton mentagrophytes,
- Active against Epidermophyton floccosum (Epidermophyton floccosum [10]): against Epidermophyton floccosum
- Active against Candida albicans (Candida albicans): Candida albicans,
- Active against Cryptococcus neoformans (Crytococcus neoformans): against Crytococcus neoformans

Compound: C=C(C)[C@@H]1CC[C@]2(CO)CC[C@]3(C)[C@H](CC[C@@H]4[C@@]5(C)CC[C@H](O)C(C)(C)[C@@H]5CC[C@]43C)[C@@H]12 [Betulin, lup-20(29)-ene-3,28-diol]
- Fungal growth (Microsporum canis [2]): +
- Fungal growth (Microsporum gypseum [11]): ++
- Fungal growth (Trichophyton rubrum [3]): −
- Fungal growth (Pityrosporum ovale [4]): −
- Fungal growth [12]: ++
- Fungal growth (Epidermophyton floccosum [5]): −
- Fungal growth (Microsporum audouinni [13]; 12.5 μg/ml): +/−
- Fungal growth (Microsporum audouinni [13]; 25 μg/ml): +/−
- Fungal growth (Microsporum audouinni [13]; 50 μg/ml): −
- Fungal growth (Microsporum audouinni [13]; 100 μg/ml): −
- Anti-viral activity against herpes simplex virus (herpes simplex virus): anti-viral activity
- Fungal growth (Microsporum canis [14]; 12.5 μg/ml): ++
- Fungal growth (Microsporum canis [14]; 25 μg/ml): +
- Fungal growth (Microsporum canis [14]; 50 μg/ml): +/−
- Fungal growth (Microsporum canis [14]; 100 μg/ml): −
- Fungal growth (Microsporum gypseum [15]; 12.5 μg/ml): +++
- Fungal growth (Microsporum gypseum [15]; 25 μg/ml): ++
- Fungal growth (Microsporum gypseum [15]; 50 μg/ml): ++
- Fungal growth (Microsporum gypseum [15]; 100 μg/ml): −
- Fungal growth (Trichophyton rubrum [16]; 12.5 μg/ml): ++
- Fungal growth (Trichophyton rubrum [16]; 25 μg/ml): ++
- Fungal growth (Trichophyton rubrum [16]; 50 μg/ml): +
- Fungal growth (Trichophyton rubrum [16]; 100 μg/ml): −
- Fungal growth (Pityrosporum ovale [17]; 12.5 μg/ml): +++
- Fungal growth (Pityrosporum ovale [17]; 25 μg/ml): +++
- Fungal growth (Pityrosporum ovale [17]; 50 μg/ml): ++
- Fungal growth (Pityrosporum ovale [17]; 100 μg/ml): +/−
- Fungal growth (Epidermophyton floccosum [18]; 12.5 μg/ml): +
- Fungal growth (Epidermophyton floccosum [18]; 25 μg/ml): +
- Fungal growth (Epidermophyton floccosum [18]; 50 μg/ml): −
- Fungal growth (Epidermophyton floccosum [18]; 100 μg/ml): −
- Active against Microsporum audouinii (Microsporum audouinii): Microsporum audouinii,
- best anti-fungal or anti-yeast activity by the direct addition method (Trichophyton rubrum [19]): against Trichophyton rubrum
- Fungal growth (Trichophyton tonsuran [20]; 12.5 μg/ml): +++
- Fungal growth (Trichophyton tonsuran [20]; 25 μg/ml): ++
- Fungal growth (Trichophyton tonsuran [20]; 50 μg/ml): ++
- Fungal growth (Trichophyton tonsuran [20]; 100 μg/ml): −
- Fungal growth (Microsporum audouinni [7]): −
- best anti-fungal or anti-yeast activity by the direct addition method (Microsporum audouinni [7]; against Microsporum audouinii): against Microsporum audouinii
- Fungal growth (Trichophyton tonsuran [21]): ++
- Fungal growth ([22]; 12.5 μg/ml): ++
- Fungal growth ([22]; 25 μg/ml): +
- Fungal growth ([22]; 50 μg/ml): +/−
- Fungal growth ([22]; 100 μg/ml): −

Compound: C=C(C)[C@@H]1CC[C@]2(COC(=O)/C=C\C(=O)O)CC[C@]3(C)[C@H](CC[C@@H]4[C@@]5(C)CC[C@H](O)C(C)(C)[C@@H]5CC[C@]43C)[C@@H]12 [Betulin-28-maleate]
- Fungal growth (Microsporum canis [2]): −
- Fungal growth (Microsporum gypseum [11]): +++
- Fungal growth (Trichophyton rubrum [3]): ++
- Fungal growth (Pityrosporum ovale [4]): −
- Fungal growth [12]: ++
- Fungal growth (Epidermophyton floccosum [5]): −
- best anti-fungal or anti-yeast activity by the direct addition method (Microsporum canis [23]): against Microsporum canis
- Fungal growth (Microsporum audouinni [7]): ++
- Fungal growth (Trichophyton tonsuran [21]): ++
